Measurements: ChEMBL document CHEMBL1201862, “PubChem BioAssay data set” (2004)
The source made the active and inactive calls.

Key:
Leucine aminopeptidase = molecular target: T1, Leucine aminopeptidase (Plasmodium falciparum 3D7, UniProt Q8IL11); test: P. falciparum M17LAP inhibitors, primary screen, biochemical, fluorogenic H-Leu-NHMec substrate, 1536-well (AID 1619); assay type: functional
T1 sequence (Q8IL11 whole entry): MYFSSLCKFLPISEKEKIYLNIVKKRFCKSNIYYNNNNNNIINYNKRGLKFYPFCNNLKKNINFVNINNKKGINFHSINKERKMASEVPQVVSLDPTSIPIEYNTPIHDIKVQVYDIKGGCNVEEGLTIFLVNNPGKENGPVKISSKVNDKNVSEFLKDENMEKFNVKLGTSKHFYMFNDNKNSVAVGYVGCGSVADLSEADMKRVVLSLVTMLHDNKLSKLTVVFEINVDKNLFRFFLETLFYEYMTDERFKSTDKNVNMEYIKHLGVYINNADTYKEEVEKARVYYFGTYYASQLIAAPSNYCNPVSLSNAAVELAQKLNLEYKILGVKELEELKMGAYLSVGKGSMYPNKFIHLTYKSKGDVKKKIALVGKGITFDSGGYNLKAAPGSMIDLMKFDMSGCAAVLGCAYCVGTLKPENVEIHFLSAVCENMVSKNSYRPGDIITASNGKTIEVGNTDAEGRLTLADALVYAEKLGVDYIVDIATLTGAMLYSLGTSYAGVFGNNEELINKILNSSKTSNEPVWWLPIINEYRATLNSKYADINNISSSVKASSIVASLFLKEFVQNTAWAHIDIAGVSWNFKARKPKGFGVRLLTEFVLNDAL

[1] = molecular target: T2, Voltage-gated N-type calcium channel alpha-1B subunit/Amyloid beta A4 precursor protein-binding family A member 1 (Homo sapiens, UniProt Q00975+Q02410); assay type: protein assay
[2] = molecular target: T2, Voltage-gated N-type calcium channel alpha-1B subunit/Amyloid beta A4 precursor protein-binding family A member 1; assay type: protein assay; remark: listed apart in the source
[3] = HEp-2 cell cytotoxicity, dose response, cytotoxicity control for RSV inhibitor project, HTS (AID 2410); assay type: functional; details: human respiratory syncytial virus
[4] = molecular target: T3, High affinity choline transporter 1 (Homo sapiens, UniProt Q9GZV3); test: CHT inhibitors, dose response, cell-based, 5-point CRC, membrane potential dye (AID 504840); assay type: functional
T3 sequence (Q9GZV3 whole entry): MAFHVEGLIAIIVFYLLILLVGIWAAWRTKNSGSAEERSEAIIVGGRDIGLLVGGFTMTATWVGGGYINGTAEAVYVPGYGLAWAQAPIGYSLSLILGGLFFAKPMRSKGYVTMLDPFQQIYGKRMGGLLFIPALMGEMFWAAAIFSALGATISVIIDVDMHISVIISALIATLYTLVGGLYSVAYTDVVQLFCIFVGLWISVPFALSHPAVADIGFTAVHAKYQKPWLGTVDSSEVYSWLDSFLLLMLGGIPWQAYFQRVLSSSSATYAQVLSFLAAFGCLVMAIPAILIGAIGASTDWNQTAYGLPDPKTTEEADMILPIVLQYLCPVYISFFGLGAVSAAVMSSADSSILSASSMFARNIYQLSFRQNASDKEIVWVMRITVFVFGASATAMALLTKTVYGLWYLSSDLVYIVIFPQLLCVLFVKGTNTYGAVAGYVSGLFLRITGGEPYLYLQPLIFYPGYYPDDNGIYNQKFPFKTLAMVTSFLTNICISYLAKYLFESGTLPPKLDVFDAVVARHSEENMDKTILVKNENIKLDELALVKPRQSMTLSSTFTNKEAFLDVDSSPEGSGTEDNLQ

[5] = molecular target: T4, Replicative DNA helicase DnaB (Mycobacterium tuberculosis, UniProt P9WMR3); test: DnaB intein splicing inhibitors, dose response, biochemical, cell-free fluorescence (AID 449749); assay type: functional
T4 sequence (P9WMR3 whole entry): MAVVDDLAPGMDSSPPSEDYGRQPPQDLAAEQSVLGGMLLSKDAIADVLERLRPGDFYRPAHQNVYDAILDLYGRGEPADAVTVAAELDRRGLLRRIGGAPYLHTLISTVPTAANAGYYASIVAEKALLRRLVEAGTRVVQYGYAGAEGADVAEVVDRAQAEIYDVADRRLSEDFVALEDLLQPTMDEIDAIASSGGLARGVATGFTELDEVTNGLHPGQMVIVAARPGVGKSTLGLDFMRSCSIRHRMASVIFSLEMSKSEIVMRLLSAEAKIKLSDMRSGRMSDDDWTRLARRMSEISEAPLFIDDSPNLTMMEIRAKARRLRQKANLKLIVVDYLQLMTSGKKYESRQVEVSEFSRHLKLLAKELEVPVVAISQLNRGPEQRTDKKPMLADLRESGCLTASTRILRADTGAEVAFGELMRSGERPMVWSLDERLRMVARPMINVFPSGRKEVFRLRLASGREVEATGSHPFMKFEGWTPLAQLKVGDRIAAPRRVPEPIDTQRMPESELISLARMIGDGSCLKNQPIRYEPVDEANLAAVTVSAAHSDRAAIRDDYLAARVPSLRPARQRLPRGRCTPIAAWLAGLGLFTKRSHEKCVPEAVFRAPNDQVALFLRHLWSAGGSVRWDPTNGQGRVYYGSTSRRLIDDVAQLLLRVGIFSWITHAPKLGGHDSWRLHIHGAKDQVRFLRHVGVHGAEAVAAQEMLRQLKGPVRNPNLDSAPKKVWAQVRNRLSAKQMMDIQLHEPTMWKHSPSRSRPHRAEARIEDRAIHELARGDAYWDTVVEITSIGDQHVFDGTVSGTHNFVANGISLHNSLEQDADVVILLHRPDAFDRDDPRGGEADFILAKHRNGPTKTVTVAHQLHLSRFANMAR

[6] = THP-1 cell cytotoxicity, dose response, cytotoxicity control for non-replicating M. tuberculosis project (AID 489025); assay type: functional
[7] = growth suppression of PTEN-null colon cells, dose response, cell-based, HCT116 PTEN knockout (AID 1047); assay type: functional;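 also: HCT116 colon tumor cells with PTEN knocked out; cells exposed to compound for 60 hours before readout; potency for loss of cell viability measured by luminescence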
Protein RecA = molecular target: T5, Protein RecA (Mycobacterium tuberculosis, UniProt P9WHJ3); test: Fluorescence Cell-Free Homogeneous Dose Retest to Identify Inhibitors of RecA-Intein Splicing Activity. [Related pubchem assays (depositor defined):AID2097, AID2223, AID489010, AID492950]; assay type: functional
T5 sequence (P9WHJ3 whole entry): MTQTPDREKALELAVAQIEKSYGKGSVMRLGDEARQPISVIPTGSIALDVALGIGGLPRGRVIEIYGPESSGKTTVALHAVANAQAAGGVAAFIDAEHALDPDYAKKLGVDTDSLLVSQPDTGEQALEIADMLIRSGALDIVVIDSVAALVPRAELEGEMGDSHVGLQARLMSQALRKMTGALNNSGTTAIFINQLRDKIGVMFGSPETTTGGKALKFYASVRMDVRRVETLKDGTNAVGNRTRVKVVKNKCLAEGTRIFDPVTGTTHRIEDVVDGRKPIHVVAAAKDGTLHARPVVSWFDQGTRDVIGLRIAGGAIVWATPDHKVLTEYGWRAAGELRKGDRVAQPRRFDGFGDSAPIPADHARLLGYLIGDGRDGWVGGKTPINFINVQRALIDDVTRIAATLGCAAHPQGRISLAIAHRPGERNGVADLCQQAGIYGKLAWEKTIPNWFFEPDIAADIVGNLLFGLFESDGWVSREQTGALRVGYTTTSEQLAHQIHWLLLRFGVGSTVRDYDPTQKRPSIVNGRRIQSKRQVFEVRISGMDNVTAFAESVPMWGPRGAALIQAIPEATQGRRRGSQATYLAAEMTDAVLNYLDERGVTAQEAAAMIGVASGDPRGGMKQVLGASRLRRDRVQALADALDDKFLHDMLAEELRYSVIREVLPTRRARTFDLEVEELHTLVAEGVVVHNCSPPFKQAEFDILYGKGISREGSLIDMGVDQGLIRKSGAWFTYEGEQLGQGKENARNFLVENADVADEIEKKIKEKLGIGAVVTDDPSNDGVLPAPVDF

cells = assay type: functional
[8] = growth suppression of beta-catenin-knockout colon cells, dose response, cell-based, HCT116, human colon tumor (AID 1045); assay type: functional;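 also: HCT116 colon tumor cells with beta catenin knocked out; cells exposed to compound for 60 hours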
[9] = molecular target: Peroxisome proliferator-activated receptor gamma/Nuclear receptor coactivator 1 (Homo sapiens, UniProt P37231); test: TR-FRET dose response biochemical High Throughput Screening assay for agonists of the steroid receptor coactivator 1 (SRC-1) recruitment by the peroxisome proliferator-activated receptor gamma (PPAR gamma): non-selective agonists. [Related pubchem assays (depositor defined):AID1300, AID1808, AID504735, AID631]; assay type: protein assay
[10] = molecular target: Peroxisome proliferator-activated receptor gamma/Nuclear receptor coactivator 2 (Homo sapiens, UniProt P37231); test: (§1) TR-FRET dose response biochemical High Throughput Screening assay for agonists of the steroid receptor coactivator 2 (SRC-2) recruitment by the peroxisome proliferator-activated receptor gamma (PPAR gamma): non-selective agonists. [Related pubchem assays: 1297, 1032 ]; assay type: functional
[11] = molecular target: T6, Polyadenylate-binding protein 1 (Homo sapiens, UniProt P11940); test: PABP1 MLLE–PAM2 interaction inhibitors, dose response, miRNA deadenylation inhibitor project, biochemical, fluorescence polarization, Cy5-PAM2 peptide, secondary (AID 602260); assay type: functional; details: read-out: IC50_Mean
[12] = molecular target: Peroxisome proliferator-activated receptor gamma/Nuclear receptor coactivator 3 (Homo sapiens, UniProt P37231); test: as §1, with “3 (SRC-3)” for “2 (SRC-2)”, “1301 (Confirmation screen.), 1048 (Primary screen.)]” for “1297, 1032 ]”; assay type: functional
[13] = molecular target: T6, Polyadenylate-binding protein 1; test: PABP1 MLLE–PAM2 binding inhibitor potency, dose response, biochemical, fluorescence polarization, FITC-PAM2 peptide (AID 602259); assay type: functional; details: read-out: IC50_Mean

T2 sequence (Q00975 whole entry): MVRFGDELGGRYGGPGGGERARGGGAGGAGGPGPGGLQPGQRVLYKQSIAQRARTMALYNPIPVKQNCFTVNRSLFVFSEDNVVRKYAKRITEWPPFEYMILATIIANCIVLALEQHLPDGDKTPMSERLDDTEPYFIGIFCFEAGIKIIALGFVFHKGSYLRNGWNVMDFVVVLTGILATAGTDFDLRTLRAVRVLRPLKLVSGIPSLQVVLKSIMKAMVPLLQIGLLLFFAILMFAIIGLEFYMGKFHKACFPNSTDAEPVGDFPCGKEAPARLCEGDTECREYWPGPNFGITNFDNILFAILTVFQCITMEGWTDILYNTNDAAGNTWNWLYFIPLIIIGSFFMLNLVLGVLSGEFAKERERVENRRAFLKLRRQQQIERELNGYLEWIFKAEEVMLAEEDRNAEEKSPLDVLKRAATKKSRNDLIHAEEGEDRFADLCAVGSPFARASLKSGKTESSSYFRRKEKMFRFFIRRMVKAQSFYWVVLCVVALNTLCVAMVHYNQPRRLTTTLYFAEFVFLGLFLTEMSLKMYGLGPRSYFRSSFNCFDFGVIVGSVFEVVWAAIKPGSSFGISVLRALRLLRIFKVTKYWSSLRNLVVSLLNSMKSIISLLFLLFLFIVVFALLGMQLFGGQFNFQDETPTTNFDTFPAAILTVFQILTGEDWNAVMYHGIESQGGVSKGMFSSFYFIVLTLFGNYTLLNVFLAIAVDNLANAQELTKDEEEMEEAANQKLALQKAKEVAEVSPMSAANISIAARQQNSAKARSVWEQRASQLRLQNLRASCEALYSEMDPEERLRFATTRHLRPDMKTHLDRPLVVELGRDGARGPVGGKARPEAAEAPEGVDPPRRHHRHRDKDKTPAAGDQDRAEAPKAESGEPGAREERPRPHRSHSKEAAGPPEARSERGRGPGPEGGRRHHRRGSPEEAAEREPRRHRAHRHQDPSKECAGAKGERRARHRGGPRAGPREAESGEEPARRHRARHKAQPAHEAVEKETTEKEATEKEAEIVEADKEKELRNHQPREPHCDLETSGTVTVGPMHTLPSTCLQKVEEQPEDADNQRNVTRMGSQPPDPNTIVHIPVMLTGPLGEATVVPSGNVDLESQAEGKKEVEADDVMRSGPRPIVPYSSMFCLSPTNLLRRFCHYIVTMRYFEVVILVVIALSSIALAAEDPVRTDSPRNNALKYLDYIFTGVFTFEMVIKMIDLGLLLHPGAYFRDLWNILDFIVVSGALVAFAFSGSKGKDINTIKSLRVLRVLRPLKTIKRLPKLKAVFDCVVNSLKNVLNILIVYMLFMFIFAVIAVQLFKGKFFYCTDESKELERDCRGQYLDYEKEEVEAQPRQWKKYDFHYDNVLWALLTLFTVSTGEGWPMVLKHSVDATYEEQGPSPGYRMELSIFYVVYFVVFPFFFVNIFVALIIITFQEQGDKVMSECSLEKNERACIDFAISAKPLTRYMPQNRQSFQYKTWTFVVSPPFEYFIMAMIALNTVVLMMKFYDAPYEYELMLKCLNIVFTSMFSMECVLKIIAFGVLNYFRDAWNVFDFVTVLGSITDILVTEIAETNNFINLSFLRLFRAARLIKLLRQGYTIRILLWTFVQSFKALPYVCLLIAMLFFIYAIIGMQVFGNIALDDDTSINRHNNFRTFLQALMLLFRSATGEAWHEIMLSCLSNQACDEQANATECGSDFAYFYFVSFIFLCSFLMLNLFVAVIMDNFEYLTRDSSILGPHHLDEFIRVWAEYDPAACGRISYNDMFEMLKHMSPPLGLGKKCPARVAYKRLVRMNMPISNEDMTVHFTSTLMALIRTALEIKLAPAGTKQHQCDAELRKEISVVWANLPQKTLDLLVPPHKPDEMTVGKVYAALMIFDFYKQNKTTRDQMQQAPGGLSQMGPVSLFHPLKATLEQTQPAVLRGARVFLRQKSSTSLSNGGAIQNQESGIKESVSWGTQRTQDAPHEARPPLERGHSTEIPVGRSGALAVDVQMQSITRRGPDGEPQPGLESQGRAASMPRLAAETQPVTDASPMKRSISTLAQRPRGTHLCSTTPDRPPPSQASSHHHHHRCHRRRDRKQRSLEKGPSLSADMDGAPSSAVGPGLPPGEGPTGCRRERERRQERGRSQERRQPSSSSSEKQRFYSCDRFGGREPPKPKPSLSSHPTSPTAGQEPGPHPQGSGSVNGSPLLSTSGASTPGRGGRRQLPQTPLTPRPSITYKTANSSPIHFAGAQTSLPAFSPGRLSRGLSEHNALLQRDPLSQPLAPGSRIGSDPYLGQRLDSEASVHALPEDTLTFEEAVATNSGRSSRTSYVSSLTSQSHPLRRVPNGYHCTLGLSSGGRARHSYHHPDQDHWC
T2 sequence (Q02410 whole entry): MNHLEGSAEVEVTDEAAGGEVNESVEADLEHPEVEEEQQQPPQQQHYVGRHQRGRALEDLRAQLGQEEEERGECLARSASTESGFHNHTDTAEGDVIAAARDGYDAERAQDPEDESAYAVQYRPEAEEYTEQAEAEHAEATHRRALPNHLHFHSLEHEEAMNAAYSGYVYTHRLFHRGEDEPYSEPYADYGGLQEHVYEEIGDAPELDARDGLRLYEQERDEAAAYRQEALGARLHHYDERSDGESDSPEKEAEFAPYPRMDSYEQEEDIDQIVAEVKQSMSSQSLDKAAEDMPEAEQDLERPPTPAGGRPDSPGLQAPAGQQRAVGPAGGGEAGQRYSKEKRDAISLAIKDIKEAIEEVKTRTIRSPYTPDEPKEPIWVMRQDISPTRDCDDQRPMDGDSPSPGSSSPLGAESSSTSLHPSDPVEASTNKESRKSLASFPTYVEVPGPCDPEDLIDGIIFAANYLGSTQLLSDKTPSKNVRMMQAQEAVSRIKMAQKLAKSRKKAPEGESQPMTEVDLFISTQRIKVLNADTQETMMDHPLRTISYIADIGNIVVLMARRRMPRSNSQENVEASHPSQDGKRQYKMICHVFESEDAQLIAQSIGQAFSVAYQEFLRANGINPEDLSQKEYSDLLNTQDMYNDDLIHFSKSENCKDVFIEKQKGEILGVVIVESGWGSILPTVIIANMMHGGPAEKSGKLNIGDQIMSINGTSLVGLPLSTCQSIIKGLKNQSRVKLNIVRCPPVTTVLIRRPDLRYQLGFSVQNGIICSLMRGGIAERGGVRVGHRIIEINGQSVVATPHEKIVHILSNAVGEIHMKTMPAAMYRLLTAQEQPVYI
T6 sequence (P11940 whole entry): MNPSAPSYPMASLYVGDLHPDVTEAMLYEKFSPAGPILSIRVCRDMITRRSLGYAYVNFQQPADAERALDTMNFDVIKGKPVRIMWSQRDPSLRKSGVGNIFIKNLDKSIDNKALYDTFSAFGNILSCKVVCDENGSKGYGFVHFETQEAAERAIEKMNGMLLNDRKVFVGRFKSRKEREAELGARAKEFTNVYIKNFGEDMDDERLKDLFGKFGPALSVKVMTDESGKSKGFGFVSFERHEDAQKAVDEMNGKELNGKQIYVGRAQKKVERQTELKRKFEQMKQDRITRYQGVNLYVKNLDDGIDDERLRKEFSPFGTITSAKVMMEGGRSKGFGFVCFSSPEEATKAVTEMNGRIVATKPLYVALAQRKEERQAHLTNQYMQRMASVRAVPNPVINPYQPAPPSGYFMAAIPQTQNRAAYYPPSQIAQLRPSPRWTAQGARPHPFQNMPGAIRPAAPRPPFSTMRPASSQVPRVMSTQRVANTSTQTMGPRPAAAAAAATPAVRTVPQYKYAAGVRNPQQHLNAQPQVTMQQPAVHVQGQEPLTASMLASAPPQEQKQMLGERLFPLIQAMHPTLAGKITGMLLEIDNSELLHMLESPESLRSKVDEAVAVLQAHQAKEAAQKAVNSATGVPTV

For `Cc1ccc(S(=O)(=O)Nc2nncs2)cc1`, the IC50 (Leucine aminopeptidase) was 23.2 µM (active).
For `O=C(COC(=O)CNC(=O)c1ccc(-c2ccccc2)cc1)NCc1ccco1`, the IC50 [1] was 49.5 µM (active) and the IC50 [2] was 5.35 µM (active).
With `Clc1cc(Cl)cc(Nc2nc[nH]n2)c1` the CC50 [3] was 22.7 µM (active) and the IC50 (Leucine aminopeptidase) was 23.3 µM (active).
With `CCCn1c2ccccc2c2cnn(CC(=O)OC)c(=O)c21` the IC50 [4] was 15.8 µM (active).
For `Cc1cc(=O)oc2cc(NC(=O)c3cccc(Br)c3)ccc12`, the IC50 [1] was > 50 µM (inactive) and the IC50 [2] was 5.32 µM (active).
With `CC(=O)OCCNc1cc(SCc2ccco2)c2nonc2c1[N+](=O)[O-]` the AC50 [5] was 8.4 µM (active), the CC50 [6] was 30.1 µM (active) and the EC50 [7] was 23.7 µM (active). For the same compound, the EC50 (Protein RecA) was 2.73 µM (active), the IC50 (cells) was 5.86 µM (active) and the EC50 [8] was 17.6 µM (active).
In the case of `O=S(=O)(c1ccccc1F)N1CCN(CCc2ccccc2)CC1`, the IC50 [4] was 5.45 µM (active).
In the case of `Fc1ccccc1CCNc1c2c(nc3ncnn13)CCCC2`, the IC50 [4] was 13.8 µM (active).
For `Cc1sc(NC(=S)Nc2ccc(F)cc2)c(C(N)=O)c1C`, the EC50 [9] was 9.36 µM (active), the EC50 [10] was 9.42 µM (active) and the IC50 [11] was > 66 µM (inactive). For the same compound, the EC50 [12] was > 79.4 µM (not active), the IC50 [13] was > 66 µM (inactive) and the IC50 (Leucine aminopeptidase) was 53.1 µM (active).
With `CCCCNC(=O)CSc1cc(=O)n(C)c2ccccc12` the EC50 [9] was > 79.4 µM (inactive), the EC50 [10] was > 79.4 µM (not active) and the EC50 [12] was > 79.4 µM (not active).
For `Cc1ccc(NC(S)=Nc2ccc3nc(-c4ccccn4)c(-c4ccccn4)nc3c2)cc1C`, the IC50 [4] was 13.2 µM (active).
For `CCOC(=O)C1CSC(CC(=O)Nc2ccc(OCC)cc2)C(=O)N1` (configuration not stated), the IC50 (Leucine aminopeptidase) was 11.4 µM (active).
